# Laboratory results published in US7183369B1, “Injectible bodily prosthetics employing methacrylic copolymer gels” (Iowa State University Research Foundation, Inc., priority 2003, dated 2007).
# Tested on: NIH/3T3 mouse fibroblasts
# Experiment: Elution cytotoxicity test
# Type: cell-based
# Description: Elution tests were performed on one sample of the pentablock material to assess the cytotoxic properties of the pentablock copolymers. Approximately 30 mg of the polymers to be tested were dissolved in 100 ml of low-glucose Dulbecco's modified eagle medium (DMEM, Sigma) with 10% fetal bovine serum (FBS, Sigma), 10 μg/ml insulin (Sigma), 10 units/ml penicillin/streptomycin (Sigma), and 100 μg/ml L-ascorbic acid (Sigma). This solution was diluted to achieve the desired polymer concentration for all tests.
# NIH/3T3 mouse fibroblasts were grown in polystyrene flasks until reaching confluence at 150 cells/mm. The growth media was removed from the flasks and replaced with one of the following: DMEM (negative control), DMEM with phenol (positive control), DMEM with the pentablock material. The concentrations of the pentablock material and phenol were 3 mg/L, 0.3 mg/L and 0.03 mg/L.
# After 24 hours of incubation in a humidified incubator with 5% CO2 at 37° C. the samples were removed and the media was replaced with Karnovsky's fixative (2.5% glutaraldehyde, 2.0% paraformaldehyde, 0.1M sodium cacodylate) for 12 hours. The samples were then stained with a 20% crystal violet dye (CVD) solution in ethanol for 6 hours followed by dehydration with ethanol. […]
substance,measurement,value
PDEAEM-b-PEO-b-PPO-b-PEO-b-PDEAEM [pentablock copolymer],cell adhesion to polystyrene substrate and confluence after test period,good adhesion to the polystyrene cell culture substrate and the cells remained confluent
